According to patent US12649733B2, “3,6-diamino-pyridazin-3-yl derivatives, pharmaceutical compositions containing them and their uses as pro-apoptotic agents” (LES LABORATOIRES SERVIER, priority 2019, dated 2026):

Legend:
[1] = system: H146 cells; assay: H146 cell viability, MTT assay; type: cell-based; settings: Homo sapiens, NCI-H146, 48 h, 48 h exposure
Protocol: (§1) MTT colorimetric assay is based on the mitochondrial reduction of tetrazolium salt by living cells. The viable cell number is proportional to the production of formazan salts, which can be read spectrophotometrically at 540 nm.
(§2) MOLT-4 and H146 cells were purchased from ATCC and cultivated in RPMI 1640 supplemented with 10% heat inactivated fetal bovine serum, penicillin (100 IU/ml), streptomycin (100 μg/ml) and L-glutamine (2 mM). Cells were cultured at 37° C. in a humidified atmosphere containing 5% CO2. Cells were seeded in 96 microwell plates (150 μL per well) and exposed to the compounds for 48 h (3.16 fold serially diluted; 9 concentrations each, triplicates). At the end of incubation time, 15 μL of MTT solution (5 mg/ml) were added per well and the cells were incubated for another 4 h. Then, 100 μL of 10% Sodium Dodecyl Sulfate (SDS)/HCl 10 mM were added per well and the plate was incubated overnight, before measurement of optical density at 540 nm. IC50s were calculated using standard four-parametric curve fitting.

[2] = target: BCLXL (Homo sapiens, UniProt Q07817, V10N/V9A); assay: Fluorescence polarisation assay (PUMA-based probe displacement); type: binding; note: 20 nM protein, 10 nM fluorescent probe
Sequence of BCLXL (Q07817 with tags, fused parts or gaps V9A/V10N): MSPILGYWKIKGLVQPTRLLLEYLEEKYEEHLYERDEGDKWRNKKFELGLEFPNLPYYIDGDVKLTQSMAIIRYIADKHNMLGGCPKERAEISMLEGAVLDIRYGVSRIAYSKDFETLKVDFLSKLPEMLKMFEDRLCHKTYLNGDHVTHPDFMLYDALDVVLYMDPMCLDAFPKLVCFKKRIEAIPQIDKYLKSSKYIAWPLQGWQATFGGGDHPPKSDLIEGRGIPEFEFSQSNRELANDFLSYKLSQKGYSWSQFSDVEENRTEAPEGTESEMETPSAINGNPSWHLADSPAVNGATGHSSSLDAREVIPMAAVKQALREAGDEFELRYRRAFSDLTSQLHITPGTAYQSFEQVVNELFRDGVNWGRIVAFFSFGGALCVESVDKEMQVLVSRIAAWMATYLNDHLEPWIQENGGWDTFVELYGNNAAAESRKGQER
Protocol: Fluorescence polarization measures the rotation of a fluorescing species in solution, the larger the molecule the more polarized the fluorescence emission.
[[…]] (GST UniProtKB® primary accession number P08515 and BCLXL UniProtKB® primary accession number Q07817-1),
resulting in an increase in anisotropy. If a compound is added which competitively binds to the same site as the probe, thereby releasing it, anisotropy decreases due to the increased amount of free probe.
An 11-point serial dilution of each compound was prepared in DMSO, the final buffer conditions were 10 mM 4-(2-hydroxyethyl)-1-piperazineethanesulfonic acid [HEPES], 150 mM NaCl, 0.05% Tween 20, pH 7.4 and 5% DMSO. The final protein concentration in the assay was 20 nM with the fluorescent probe present at 10 nM. The experiments were incubated for 2 hours at 23° C. before fluorescence polarization was measured on a Biotek SynergyNeo plate reader (Excitation 485 nm, emission 525 nm, parallel and perpendicular reads). […] The KI values were determined from the IC50 values according to Cer et al, Nucleic Acids Res, 2009, Jul. 1: 37(WebServer issue): W441-W445.

[3] = system: MOLT-4 cells; assay: MOLT-4 cell viability, MTT assay; type: cell-based; settings: Homo sapiens, MOLT-4, 48 h, 48 h exposure
Protocol: as §1, §2

| IC50 [1] [µM] | Ki [2] [nM] | IC50 [3] [nM] | Compound |
| --- | --- | --- | --- |
| 15 |  |  | Cc1c(Nc2nc(C(=O)O)cs2)nnc(Nc2nc3ccccc3s2)c1C [Example 1] |
|  | 910 |  | O=C(O)c1csc(Nc2ccc(Nc3nc4ccccc4s3)nn2)n1 [Example 4, 2-({6-[(1,3-Benzothiazol-2-yl)amino]pyridazin-3-yl}amino)-1,3-thiazole-4-carboxylic acid] |
| > 15 |  |  | Cc1cc(Nc2nc(C(=O)O)cs2)nnc1Nc1nc2ccccc2s1 [Example 7, 2-({6-[(1,3-Benzothiazol-2-yl)amino]-5-methylpyridazin-3-yl}amino)-1,3-thiazole-4-carboxylic acid] |
|  | 600 |  | Cc1cc(Nc2nc3ccccc3s2)nnc1Nc1nc(C(=O)O)cs1 [Example 11, 2-({6-[(1,3-Benzothiazol-2-yl)amino]-4-methylpyridazin-3-yl}amino)-1,3-thiazole-4-carboxylic acid] |
| 13.4 |  | 7880 | O=C(O)c1csc(Nc2nnc(Nc3nc4ccccc4s3)c3c2CCCC3)n1 [Example 17, 2-[[4-(1,3-Benzothiazol-2-ylamino)-5,6,7,8-tetrahydrophthalazin-1-yl]amino]thiazole-4-carboxylic acid] |
| 3.35 |  | 7210 | Cc1c(Nc2nc(C(=O)O)cs2)nnc(Nc2nc3ccccc3s2)c1C1CC1 [Example 20, 2-({6-[(1,3-Benzothiazol-2-yl)amino]-5-cyclopropyl-4-methylpyridazin-3-yl}amino)-1,3-thiazole-4-carboxylic acid] |
| 9.58 |  |  | Cc1cc(N(C)c2nc(C(=O)O)cs2)nnc1Nc1nc2ccccc2s1 [Example 21, 2-({6-[(1,3-Benzothiazol-2-yl)amino]-5-methylpyridazin-3-yl}(methyl)amino)-1,3-thiazole-4-carboxylic acid] |
| > 15 |  | > 15000 | Cc1c(Nc2nc3ccccc3s2)nnc(N(C)c2nc(C(=O)O)cs2)c1C [Example 26, 2-({6-[(1,3-Benzothiazol-2-yl)amino]-4,5-dimethylpyridazin-3-yl}(methyl)amino)-1,3-thiazole-4-carboxylic acid] |
| > 15 |  | > 15000 | COCc1c(Nc2nc(C(=O)O)cs2)nnc(Nc2nc3ccccc3s2)c1C [Example 29, 2-({6-[(1,3-Benzothiazol-2-yl)amino]-4-(methoxymethyl)-5-methylpyridazin-3-yl}amino)-1,3-thiazole-4-carboxylic acid] |
|  | 19 |  | COCCCC1(Cn2ncc(-c3sc(N(C)c4cc(C)c(Nc5nc6ccccc6s5)nn4)nc3C(=O)O)c2C)CCCCCCC1 [Example 43, 2-({6-[(1,3-Benzothiazol-2-yl)amino]-5-methylpyridazin-3-yl}(methyl)amino)-5-(1-{[1-(3-methoxypropyl)cyclooctyl]methyl}-5-methyl-1H-pyrazol-4-yl)-1,3-thiazole-4-carboxylic acid] |
|  | 1900 |  | Cc1c(Nc2nc(C(=O)O)cs2)nnc(Nc2nc3c(C)cccc3s2)c1C [Example 48, 2-[[4,5-dimethyl-6-[(4-methyl-1,3-benzothiazol-2-yl)amino]pyridazin-3-yl]amino]thiazole-4-carboxylic acid] |
| > 15 |  | > 15000 | Cc1c(Nc2nc3ccccc3s2)nnc(Nc2nc(C(=O)O)cs2)c1CCCN1CCN(C)CC1 [Example 51, 2-({6-[(1,3-Benzothiazol-2-yl)amino]-5-methyl-4-[3-(4-methylpiperazin-1-yl)propyl]pyridazin-3-yl}amino)-1,3-thiazole-4-carboxylic acid] |
|  | 82 |  | Cc1c(Nc2nc(C(=O)O)cs2)nnc(Nc2nc3c(F)cccc3s2)c1C [Example 55, 2-[[6-[(4-Fluoro-1,3-benzothiazol-2-yl)amino]-4,5-dimethyl-pyridazin-3-yl]amino]thiazole-4-carboxylic acid] |
|  | 160 |  | Cc1cc(N(C)c2nc(C(=O)O)c(N3CC(O)C3)s2)nnc1Nc1nc2ccccc2s1 [Example 72, 2-({6-[(1,3-Benzothiazol-2-yl)amino]-5-methylpyridazin-3-yl}(methyl)amino)-5-(3-hydroxyazetidin-1-yl)-1,3-thiazole-4-carboxylic acid] |
|  | 92 |  | Cc1cc(N(C)c2nc(C(=O)O)c(N3CC[C@@H](Oc4ccccc4)C3)s2)nnc1Nc1nc2ccccc2s1 [Example 79, 2-({6-[(1,3-Benzothiazol-2-yl)amino]-5-methylpyridazin-3-yl}(methyl)amino)-5-[(3R)-3-phenoxypyrrolidin-1-yl]-1,3-thiazole-4-carboxylic acid] |
|  | 80 |  | Cc1cc(N(C)c2nc(C(=O)O)c(N3CCCCC3)s2)nnc1Nc1nc2ccccc2s1 [Example 80, 2-({6-[(1,3-Benzothiazol-2-yl)amino]-5-methylpyridazin-3-yl}(methyl)amino)-5-(piperidin-1-yl)-1,3-thiazole-4-carboxylic acid] |
|  | 16 |  | Cc1cc(N(C)c2nc(C(=O)O)c(N3CCC(Oc4ccccc4)CC3)s2)nnc1Nc1nc2ccccc2s1 [Example 81, 2-({6-[(1,3-Benzothiazol-2-yl)amino]-5-methylpyridazin-3-yl}(methyl)amino)-5-(4-phenoxypiperidin-1-yl)-1,3-thiazole-4-carboxylic acid] |
|  | 2400 |  | Cc1cc(N(C)c2nc(C(=O)O)c(C3CCN(C)CC3)s2)nnc1Nc1nc2ccccc2s1 [Example 99, 2-({6-[(1,3-Benzothiazol-2-yl)amino]-5-methylpyridazin-3-yl}(methyl)amino)-5-(1-methylpiperidin-4-yl)-1,3-thiazole-4-carboxylic acid] |
|  | 14 |  | Cc1cc(N(CC(O)CO)c2nc(C(=O)O)cs2)nnc1Nc1nc2ccccc2s1 (centres unmarked) [Example 103, 2-[[6-(1,3-Benzothiazol-2-ylamino)-5-methyl-pyridazin-3-yl]-(2,3-dihydroxypropyl)amino]thiazole-4-carboxylic acid] |
|  | 16 |  | Cc1cc(N(CCCC(O)CO)c2nc(C(=O)O)cs2)nnc1Nc1nc2ccccc2s1 (centres unmarked) [Example 104, 2-[[6-(1,3-Benzothiazol-2-ylamino)-5-methyl-pyridazin-3-yl]-(4,5-dihydroxypentyl)amino]thiazole-4-carboxylic acid] |
|  | 130 |  | Cc1cc(N(CC(CO)N2CCOCC2)c2nc(C(=O)O)cs2)nnc1Nc1nc2ccccc2s1 (centres unmarked) [Example 107, 2-[[6-(1,3-Benzothiazol-2-ylamino)-5-methyl-pyridazin-3-yl]-(3-hydroxy-2-morpholino-propyl)amino]thiazole-4-carboxylic acid] |
|  | 1300 |  | Cc1cc(N(C)c2nc(C(=O)O)c(C3CN(S(C)(=O)=O)C3)s2)nnc1Nc1nc2ccccc2s1 [Example 149, 2-({6-[(1,3-Benzothiazol-2-yl)amino]-5-methylpyridazin-3-yl}(methyl)amino)-5-(1-methanesulfonylazetidin-3-yl)-1,3-thiazole-4-carboxylic acid] |
| 1.62 |  | 879 | CNCC#Cc1ccc(OCCCc2sc(N(CCCC(O)CN(C)CCP(=O)(O)O)c3cc(C)c(Nc4nc5ccccc5s4)nn3)nc2C(=O)O)c(F)c1 (centres unmarked) [Example 196, 2-[[6-(1,3-Benzothiazol-2-ylamino)-5-methyl-pyridazin-3-yl]-[4-hydroxy-5-[methyl(2-phosphonoethyl)amino]pentyl]amino]-5-[3-[2-fluoro-4-[3-(methylamino)prop-1-ynyl]phenoxy]propyl]thiazole-4-carboxylic acid] |
| 0.0748 |  | 611 | CNCC#Cc1ccc(OCCCc2sc(N(CCC[N+](C)(C)C)c3cc(C)c(Nc4nc5ccccc5s4)nn3)nc2C(=O)[O-])c(F)c1 [Example 202, 2-[[6-(1,3-Benzothiazol-2-ylamino)-5-methyl-pyridazin-3-yl]-[3-(trimethylammonio)propyl]amino]-5-[3-[2-fluoro-4-[3-(methylamino)prop-1-ynyl]phenoxy]propyl]thiazole-4-carboxylate] |
| 0.0214 |  | 20.3 | CNCC#Cc1ccc(OCCCc2sc(N(CCCCN(C)C)c3cc(C)c(Nc4nc5ccccc5s4)nn3)nc2C(=O)O)c(F)c1 [Example 210, 2-[[6-(1,3-Benzothiazol-2-ylamino)-5-methyl-pyridazin-3-yl]-[4-(dimethylamino)butyl]amino]-5-[3-[2-fluoro-4-[3-(methylamino)prop-1-ynyl]phenoxy]propyl]thiazole-4-carboxylic acid] |
| 0.129 |  | 1270 | CNCC#Cc1ccc(OCCCc2sc(N(CCCCC[N+](C)(C)C)c3cc(C)c(Nc4nc5ccccc5s4)nn3)nc2C(=O)O)c(F)c1 [Example 219, 2-[[6-(1,3-Benzothiazol-2-ylamino)-5-methyl-pyridazin-3-yl]-[5-(trimethylammonio)pentyl]amino]-5-[3-[2-fluoro-4-[3-(methylamino)prop-1-ynyl]phenoxy]propyl]thiazole-4-carboxylate] |
